# From PubChem BioAssay AID248 (DTP/NCI, 2004)
# Toxic doses and inconclusive results are not listed.
# Test system: L1210 leukemia ip in BDF1 mice, survival T/C
# Assay: NCI In Vivo Anticancer Drug Screen. Data for tumor model L1210 Leukemia (intraperitoneal) in B6D2F1 (BDF1) mice
# Settings: endpoint: mean survival time, higher = longer survival
# In short: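 Antitumor effect is assessed in tumor-bearing animals. Survival in the compound arm is compared with a vehicle-dosed control arm and expressed as their quotient.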
# [1] = dose: 100.0 mg/kg/injection, schedule: Q04DX002 (ip), vehicle: Klucel (hydroxypropylcellulose) (HPC)
# [2] = dose: 200.0 mg/kg/injection, schedule: Q04DX002 (ip), vehicle: Klucel (hydroxypropylcellulose) (HPC)
# [3] = dose: 100.0 mg/kg/injection, schedule: Q01DX001 (ip), vehicle: carboxymethylcellulose (CMC)
# [4] = dose: 50.0 mg/kg/injection, schedule: Q01DX009 (ip), vehicle: Klucel (hydroxypropylcellulose) (HPC)
# [5] = dose: 100.0 mg/kg/injection, schedule: Q01DX009 (ip), vehicle: Klucel (hydroxypropylcellulose) (HPC)
# [6] = dose: 200.0 mg/kg/injection, schedule: Q01DX009 (ip), vehicle: Klucel (hydroxypropylcellulose) (HPC)
smiles,measurement,setting,value
c1ccc([P+](c2ccccc2)(c2ccccc2)c2ccc(-c3ccc([P+](c4ccccc4)(c4ccccc4)c4ccccc4)cc3)cc2)cc1,T/C,"dose: 1.25 mg/kg/injection, schedule: Q01DX009 (ip), vehicle: Klucel (hydroxypropylcellulose) (HPC)",102 % of control
same,T/C,"dose: 3.5 mg/kg/injection, schedule: Q01DX009 (ip), vehicle: Klucel (hydroxypropylcellulose) (HPC)",105 % of control
COc1ccc(CO)cc1,T/C,"dose: 75.0 mg/kg/injection, schedule: Q04DX003 (ip), vehicle: Klucel (hydroxypropylcellulose) (HPC)",95 % of control
same,T/C,"dose: 150.0 mg/kg/injection, schedule: Q04DX003 (ip), vehicle: Klucel (hydroxypropylcellulose) (HPC)",101 % of control
same,T/C,"dose: 300.0 mg/kg/injection, schedule: Q04DX003 (ip), vehicle: Klucel (hydroxypropylcellulose) (HPC)",91 % of control
Nc1cc2c3ccccc3ccc2c2ccccc12,T/C,"dose: 67.0 mg/kg/injection, schedule: Q01DX009 (ip), vehicle: saline with Tween-80",105 % of control
same,T/C,"dose: 100.0 mg/kg/injection, schedule: Q01DX009 (ip), vehicle: saline with Tween-80",105 % of control
same,T/C,"dose: 150.0 mg/kg/injection, schedule: Q01DX009 (ip), vehicle: saline with Tween-80",96 % of control
same,T/C,"dose: 225.0 mg/kg/injection, schedule: Q01DX009 (ip), vehicle: saline with Tween-80",97 % of control
Cc1c(C(=O)O)[nH]c(=O)[nH]c1=O,T/C,"dose: 100.0 mg/kg/injection, schedule: Q01DX Z (ip), vehicle: methylcellulose (MC)",90 % of control
same,T/C,"dose: 200.0 mg/kg/injection, schedule: Q01DX Z (ip), vehicle: methylcellulose (MC)",97 % of control
Oc1ccc(/C=N/Nc2nnc(N/N=C/c3ccc(O)c(O)c3)c3ccccc23)cc1O,T/C,"dose: 50.0 mg/kg/injection, schedule: Q01DX001 (ip), vehicle: saline",97 % of control
same,T/C,"dose: 100.0 mg/kg/injection, schedule: Q01DX001 (ip), vehicle: saline",92 % of control
same,T/C,"dose: 200.0 mg/kg/injection, schedule: Q01DX001 (ip), vehicle: saline",97 % of control
same,T/C,"dose: 400.0 mg/kg/injection, schedule: Q01DX001 (ip), vehicle: saline",97 % of control
CCCCN(C(=O)O)P(=O)(OCC)OCC,T/C,"dose: 50.0 mg/kg/injection, schedule: Q01DX009 (ip), vehicle: saline",101 % of control
same,T/C,"dose: 100.0 mg/kg/injection, schedule: Q01DX009 (ip), vehicle: saline",103 % of control
same,T/C,"dose: 200.0 mg/kg/injection, schedule: Q01DX009 (ip), vehicle: saline",109 % of control
same,T/C,"dose: 400.0 mg/kg/injection, schedule: Q01DX009 (ip), vehicle: saline",97 % of control
CCNC(=O)C1C(c2ccccc2)C1c1ccccc1 (stereo unspecified),T/C,"dose: 25.0 mg/kg/injection, schedule: Q04DX002 (ip), vehicle: Klucel (hydroxypropylcellulose) (HPC)",97 % of control
same,T/C,"dose: 50.0 mg/kg/injection, schedule: Q04DX002 (ip), vehicle: Klucel (hydroxypropylcellulose) (HPC)",102 % of control
same,T/C,[1],102 % of control
CN=C(NC(C)C)c1ccc(NC(=O)c2ccc(C(=O)Nc3ccc(C(=NC)NC(C)C)cc3)cc2)cc1,T/C,"dose: 2.0 mg/kg/injection, schedule: Q01DX Z (ip), vehicle: carboxymethylcellulose (CMC)",97 % of control
same,T/C,"dose: 4.0 mg/kg/injection, schedule: Q01DX Z (ip), vehicle: carboxymethylcellulose (CMC)",101 % of control
same,T/C,"dose: 6.0 mg/kg/injection, schedule: Q01DX Z (ip), vehicle: carboxymethylcellulose (CMC)",112 % of control
same,T/C,"dose: 16.0 mg/kg/injection, schedule: Q01DX Z (ip), vehicle: carboxymethylcellulose (CMC)",151 % of control
same,T/C,"dose: 25.0 mg/kg/injection, schedule: Q01DX Z (oral), vehicle: carboxymethylcellulose (CMC)",96 % of control
same,T/C,"dose: 31.0 mg/kg/injection, schedule: Q01DX Z (ip), vehicle: methylcellulose (MC)",117 % of control
same,T/C,"dose: 50.0 mg/kg/injection, schedule: Q01DX Z (oral), vehicle: carboxymethylcellulose (CMC)",101 % of control
same,T/C,"dose: 62.5 mg/kg/injection, schedule: Q01DX Z (ip), vehicle: methylcellulose (MC)",157 % of control
same,T/C,"dose: 100.0 mg/kg/injection, schedule: Q01DX Z (oral), vehicle: carboxymethylcellulose (CMC)",96 % of control
same,T/C,"dose: 125.0 mg/kg/injection, schedule: Q01DX Z (ip), vehicle: methylcellulose (MC)",157 % of control
same,T/C,"dose: 200.0 mg/kg/injection, schedule: Q01DX Z (oral), vehicle: carboxymethylcellulose (CMC)",101 % of control
same,T/C,"dose: 250.0 mg/kg/injection, schedule: Q01DX Z (ip), vehicle: methylcellulose (MC)",97 % of control
C[C@]12CC[C@H](OC3OC(CO)C(O)C(O)C3O)C[C@H]1CC[C@@H]1[C@@H]2CC[C@]2(C)[C@@H](C3=CCOC3=O)CC[C@]12O (stereo partly specified),T/C,"dose: 0.5 mg/kg/injection, schedule: Q01DX001 (ip), vehicle: saline",103 % of control
same,T/C,"dose: 0.5 mg/kg/injection, schedule: Q01DX010 (ip), vehicle: saline",98 % of control
same,T/C,"dose: 1.0 mg/kg/injection, schedule: Q01DX001 (ip), vehicle: saline",105 % of control
same,T/C,"dose: 1.0 mg/kg/injection, schedule: Q01DX010 (ip), vehicle: saline",107 % of control
same,T/C,"dose: 2.0 mg/kg/injection, schedule: Q01DX001 (ip), vehicle: saline",105 % of control
same,T/C,"dose: 2.0 mg/kg/injection, schedule: Q01DX010 (ip), vehicle: saline",107 % of control
same,T/C,"dose: 4.0 mg/kg/injection, schedule: Q01DX001 (ip), vehicle: saline",103 % of control
same,T/C,"dose: 8.0 mg/kg/injection, schedule: Q01DX001 (ip), vehicle: saline",103 % of control
same,T/C,"dose: 16.0 mg/kg/injection, schedule: Q01DX001 (ip), vehicle: saline",108 % of control
O=C(Nc1cccc(C(F)(F)F)c1)c1ccc(F)cc1,T/C,[1],91 % of control
same,T/C,[2],102 % of control
same,T/C,"dose: 400.0 mg/kg/injection, schedule: Q04DX002 (ip), vehicle: Klucel (hydroxypropylcellulose) (HPC)",88 % of control
O=C(O)c1c(O)cc(=O)oc1-c1ccccc1Cl,T/C,"dose: 75.0 mg/kg/injection, schedule: Q01DX001 (ip), vehicle: saline",97 % of control
same,T/C,"dose: 150.0 mg/kg/injection, schedule: Q01DX001 (ip), vehicle: saline",101 % of control
same,T/C,"dose: 300.0 mg/kg/injection, schedule: Q01DX001 (ip), vehicle: saline",96 % of control
O=[N+]([O-])c1ccc2c(c1)/C(=N\O)c1cc(Br)ccc1-2,T/C,[3],105 % of control
same,T/C,"dose: 200.0 mg/kg/injection, schedule: Q01DX001 (ip), vehicle: carboxymethylcellulose (CMC)",105 % of control
same,T/C,"dose: 400.0 mg/kg/injection, schedule: Q01DX001 (ip), vehicle: carboxymethylcellulose (CMC)",94 % of control
CCCCN1C(=O)C2C3CCC(O3)C2C1=O (stereo unspecified),T/C,[1],98 % of control
same,T/C,[2],103 % of control
Cc1nc2ccccc2c2ccccc12,T/C,[4],111 % of control
same,T/C,[5],105 % of control
same,T/C,[6],111 % of control
Nc1nc(=S)c2[nH]c(N=Nc3ccc(S(=O)(=O)Nc4cnc5ccccc5n4)cc3)nc2[nH]1,T/C,"dose: 25.0 mg/kg/injection, schedule: Q01DX009 (ip), vehicle: Klucel (hydroxypropylcellulose) (HPC)",112 % of control
same,T/C,[4],109 % of control
same,T/C,[5],91 % of control
CC(C)(C)CC(Cl)Cl,T/C,[5],100 % of control
same,T/C,"dose: 100.0 mg/kg/injection, schedule: Q04DX003 (ip), vehicle: Klucel (hydroxypropylcellulose) (HPC)",96 % of control
same,T/C,[6],101 % of control
same,T/C,"dose: 200.0 mg/kg/injection, schedule: Q04DX003 (ip), vehicle: Klucel (hydroxypropylcellulose) (HPC)",98 % of control
same,T/C,"dose: 400.0 mg/kg/injection, schedule: Q04DX003 (ip), vehicle: Klucel (hydroxypropylcellulose) (HPC)",94 % of control
c1ccc(-c2c(-c3ccccc3)c(-c3ccccc3)c(-c3ccccc3)c(-c3ccccc3)c2-c2ccccc2)cc1,T/C,"dose: 25.0 mg/kg/injection, schedule: Q01DX009 (ip), vehicle: water",104 % of control
same,T/C,"dose: 50.0 mg/kg/injection, schedule: Q01DX009 (ip), vehicle: water",102 % of control
same,T/C,"dose: 100.0 mg/kg/injection, schedule: Q01DX009 (ip), vehicle: water",96 % of control
same,T/C,"dose: 200.0 mg/kg/injection, schedule: Q01DX009 (ip), vehicle: water",100 % of control
same,T/C,"dose: 400.0 mg/kg/injection, schedule: Q01DX009 (ip), vehicle: water",97 % of control
COC1=C(OC)C(=O)c2c(c(=O)c3ccccc3n2C)C1=O,T/C,"dose: 25.0 mg/kg/injection, schedule: Q01DX001 (ip), vehicle: carboxymethylcellulose (CMC)",104 % of control
same,T/C,"dose: 50.0 mg/kg/injection, schedule: Q01DX001 (ip), vehicle: carboxymethylcellulose (CMC)",95 % of control
same,T/C,[3],101 % of control
CC[N+](C)(CC)CC[N+]1(C)CC2CC=CCC2C1 (stereo unspecified),T/C,"dose: 222.0 mg/kg/injection, schedule: Q01DX Z (ip), vehicle: saline",94 % of control
same,T/C,"dose: 333.0 mg/kg/injection, schedule: Q01DX Z (ip), vehicle: saline",97 % of control
same,T/C,"dose: 500.0 mg/kg/injection, schedule: Q01DX Z (ip), vehicle: saline",94 % of control
